Assay results as given in patent US9532972B2, “Increasing taxane sensitivity in cancer cells” (UNIVERSITY OF CENTRAL FLORIDA RESEARCH FOUNDATION, INC., priority 2012, dated 2017).

What was measured:
Assay type in all cases: cell-based
[1] = system: MDA-MB-231; test: Flow cytometry cell cycle analysis (propidium iodide DNA content); settings: MDA-MB-231 cells, 2 μM docetaxel, 24 hrs
Method: (§1) To confirm the results of the MTS assay, while further elucidating the link between LIMK1 expression and taxane sensitivity, the effects of taxane treatment on cell cycle were analyzed. […] Using flow cytometry to monitor DNA content, the percentages of cells in each phase of the cell cycle including the percentage of cells in the sub-G1 population (FIGS. 2A and B) were determined. […] Although after 24 hrs of treatment, the difference between cells lines became more apparent.
(§2) Cells were seeded into 60 mm dishes and transfected the following day with one of the previous constructs. […] At each time point, media and cells were collected, washed, and fixed in 70% EtOH at −20° C. for at least 30 mins. Cells were then washed and stained for 30 mins in PBS containing: 2% BSA; 0.1% Pluronic F-68 (Sigma); Propidium Iodide [80 ug/mL] (Sigma); RNase [100 ug/mL]. Data was collected using FACSCalibur and analyzed using Cell Quest and ModFit software.

[2] = system: P69; test: as above; settings: P69 cells, 2 μM docetaxel, 24 hrs
Method: as §1, §2

[3] = system: MCF7; test: as above; settings: MCF7 cells, 2 μM docetaxel, 24 hrs
Method: as §1
(§3) In order to confirm the implication of LIMK1 induced resistance to taxane treatment, the expression of LIMK1 in each cell line was altered. […] Sensitivity to the taxane treatment was monitored by MTS assay.
as §2

[4] = system: PC-3; test: as above; settings: PC-3 cells, 2 μM docetaxel, 24 hrs
Method: as §1, §3, §2

[5] = system: cleaved caspases 3, cleaved caspases 9 and cleaved PARP; test: Western blot of apoptotic markers in docetaxel treated cell lysates
Source text: FIG. 5: Higher LIMK1 expression diminished Taxane induced apoptotic response. PC3 cells were transiently transfected with either LIMK1 targeting shRNA construct or scrambled shRNA construct. […] After 24 hrs of DTX treatment, cell were harvested and apoptotic markers were monitored by immunoblot. Cyt c Release: PC3 and MCF7 were transiently transfected with LIMK1 and Scrambled shRNA constructs, P69 cells were transiently transfected with LIMK1 expression vector, LIMK1-shRNA vector or control vector. […] Following treatment cells were harvested and cytosolic, mitochondrial, and nuclear fractions were isolated. Presence of Cyt c in the cytosol was monitored by immunoblot of cytosolic fraction. Densinometry was used to determine relative values.
Western blots were probed with the following antibodies: mouse anti-human-GAPDH (Sigma); mouse anti-FLAG (Sigma); rabbit anti-human-LIMK1 (Santa Cruz; Santa Cruz, Calif.); mouse anti-human LIMK1 (BD Pharmingen, San Diego, Calif.); rabbit anti-Cleaved Caspase 3/9 and anti-Cleaved PARP (Cell Signaling); rabbit anti-human-alpha-tubulin (Sigma). Mouse anti-Cytochrome c (R&D Systems). Rabbit anti-Prohibitin (Abcam). Rabbit anti-Bax (Santa Cruz). Rabbit anti-Bcl2 (Cell Signaling)

Question: For `CC(=O)O[C@@]12CO[C@@H]1C[C@H](O)[C@@]1(C)C(=O)[C@H](O)C3=C(C)[C@@H](OC(=O)[C@H](O)[C@@H](NC(=O)OC(C)(C)C)c4ccccc4)C[C@@](O)([C@@H](OC(=O)c4ccccc4)[C@H]21)C3(C)C` [docetaxel], which sub-G1 population [1] is on record?
Answer: 25%

Question: And the sub-G1 population [2]?
Answer: 15%

Question: What about the sub-G1 population [3] of the same compound?
Answer: 5%

Question: And the sub-G1 population [4]?
Answer: 6%

Question: And the “cleaved PARP” value [5]?
Answer: increased levels

Question: What about the “cleaved caspases 3” value [5] of the same compound?
Answer: increased levels

Question: What about the “cleaved caspases 9” value [5] of the same compound?
Answer: increased levels
